# Results: PubChem BioAssay AID489006 (Sanford-Burnham Center for Chemical Genomics, 2010)
# Activity calls are given as the source filed them. No rule for the calls is given here.
# Test system: Jurkat NF-kB reporter, luminescence
# Test: Jurkat NF-kB signaling inhibitors – cell-based, luminescence, selectivity assay for B-cell receptor NF-kB inhibitor project, dose response (AID 489006)
row,SMILES,IC50
1,Cc1cc(C)cc(NC(=O)c2nnn(Cc3cc(C)ccc3C)c2N)c1,> 80 µM (inactive)
2,COc1ccc(-c2ccc(OC)c([C@H]3[C@H]4C=CC[C@@H](C)[C@@H]4C(=O)N3Cc3ccccc3)c2)cc1,35.7 µM (inactive)
3,COc1ccccc1/C=C1\SC(=S)N(CCC(=O)NC2=NCCS2)C1=O,28.3 µM (inactive)
4,CCn1c(=O)cc(SCC(=O)N2CCOCC2)c2ccccc21,> 80 µM (inactive)
5,O=c1c(C=NCCCO)c(-c2ccccc2)[nH]n1-c1nc2ccccc2s1,3.46 µM
6,CCOC(=O)Cc1csc(NC(=S)NC(=O)c2ccc(C)cc2)n1,0.72 µM
7,CN(C)CCCN=Cc1c(-c2ccccc2)[nH]n(-c2nc3ccccc3s2)c1=O,0.88 µM
8,O=C(Oc1cccc(/C=N/Nc2nc(Nc3ccccc3)nc(N3CCOCC3)n2)c1)c1ccco1,> 80 µM (inactive)
9,COc1ccc(/C=C2\SC(=S)N(CCC(=O)Nc3ccc(O)cc3)C2=O)cc1,> 80 µM (inactive)
10,O=C(CN1C(=O)c2ccccc2S1(=O)=O)c1ccccc1Cl,1.26 µM
11,CCCC(=O)Nc1ccc(Sc2ccc([N+](=O)[O-])cc2)cc1,15.9 µM
12,CC(C)c1[nH]nc2c1C(c1ccco1)C(C#N)=C(N)O2 (centres undefined),40 µM (inactive)
13,CCn1c(=O)cc(SCC(=O)N2CCN(C)CC2)c2ccccc21,> 80 µM (inactive)
14,COc1ccc(-c2ccc(C(C)=O)cc2)cc1[C@H]1[C@H]2C=CC[C@@H](C)[C@@H]2C(=O)N1Cc1ccccc1,> 80 µM (inactive)
15,COc1ccc2nc(Sc3c([N+](=O)[O-])nc(C)n3Cc3ccccc3)[nH]c2c1,12.2 µM
16,Cc1ccc(C(=O)C[n+]2cc(-c3ccc(C)cc3)n3c2CCCCC3)cc1,8.37 µM
17,NC(=S)N=Nc1c(O)n(Cc2ccccc2)c2ccccc12,23.9 µM (inactive)
18,CCc1ccc(/C=C2\SC(=S)N(CCCC(=O)Nc3ccccn3)C2=O)cc1,1.58 µM
19,C(=N\Nc1nc(Nc2ccccc2)nc(Nc2ccccc2)n1)/c1cccnc1,> 80 µM (inactive)
20,COc1ccc(-n2ncc3c(N4CCC(C(N)=O)CC4)ncnc32)cc1,> 80 µM (inactive)

row,SMILES,IC50
1,COc1ccc(/C=C2\SC(=S)N(CCCC(=O)Nc3ccc(O)cc3)C2=O)cc1,> 80 µM (inactive)
2,Cc1cc(C)cc(NC(=O)Nc2ccc(NC(=O)c3ccccc3O)cc2)c1,> 80 µM (inactive)
3,CNC(=O)CCc1nc(-c2ccc(C(C)(C)C)cc2)no1,> 80 µM (inactive)
4,O=C(CCCN1C(=O)/C(=C/c2ccccc2Cl)SC1=S)Nc1ccccn1,9.52 µM
5,CC(=C/c1ccco1)/C=N/NC(=O)CSc1nnc(SCc2ccc(C)cc2)s1,> 80 µM (inactive)
6,CCOC(=O)c1cc2c(=O)n3ccccc3nc2n(CC(C)C)c1=NC(=O)c1c(-c2c(F)cccc2Cl)noc1C,> 80 µM (inactive)
7,Cc1cc(C)cc(N2C(=O)NC(=O)/C(=C\c3cccn3-c3ccccc3)C2=O)c1,16.4 µM
8,COc1cc(OC)cc(-c2cc3nc(C)c(CCC(=O)Nc4nc(C)cs4)c(C)n3n2)c1,5.28 µM
9,COc1ccc(C2=NCc3nnc(C)n3-c3ccc(Cl)cc32)cc1Cl,36.4 µM (inactive)
10,C=CCn1c(O)c(C(CC)=NC(C)c2ccccc2)c(=O)[nH]c1=O (centres undefined),51.3 µM (inactive)
11,COc1cc(/C(C)=N\NC(N)=S)cc(OC)c1OC,72.5 µM (inactive)
12,Cc1ccc(-c2nc(C(=O)NCC3CCCO3)cc3c2[nH]c2ccccc23)cc1 (centres undefined),23.4 µM (inactive)
13,COc1ccc(CC(=O)Nc2cccc(-c3ccc4nnc(C)n4n3)c2)cc1,> 80 µM (inactive)
14,COc1cccc(/C=C2\SC(=S)N(CCCC(=O)NC3=NCCS3)C2=O)c1,25.9 µM (inactive)
15,Cc1ccc(S(=O)(=O)CC2CSc3nc4ccccc4n32)cc1 (centres undefined),> 80 µM (inactive)
16,O=C(CCCN1C(=O)/C(=C/c2ccccc2Cl)SC1=S)NNC(=O)c1ccccc1,5.2 µM
17,CCCOc1ccc(NC(=O)C(=O)NCCCn2ccnc2)cc1,> 80 µM (inactive)
18,COc1ccc(OCc2cccc(C(=O)Nc3cc(C)on3)c2)cc1,3.77 µM
19,CCC(CC)C(=O)Nc1ccc(Sc2ccc([N+](=O)[O-])cc2)cc1,6.83 µM
